Data on 33 compounds can be found in patent US20060281736A1, “Product comprising at least one phosphatase cdc25 inhibitor combined with at least one other anticancer agent” (priority 2003, published 2006).

Structures can show the parent of a compound that is named as a salt.

The subject of assay [1] is HT-29 cell line (human colon cancer cells). Description: Test of cell proliferation of the HT-29 cells (WST1), products individually or in combination. Type of assay: cell-based. As to conditions: 120 hours. The procedure: A) Test of Cell Proliferation of the HT-29 Cells
The protocol for the test used to obtain the results shown is described below:
The HT-29 cell line (human colon cancer cells) were acquired from the American Tissue Culture Collection (Rockville, Md., USA).
The HT-29 cells (2000 cells/well) are cultured in 96-well plates. On day 0, these cells are seeded in 90 μl of Dulbecco's modified Eagle medium (Gibco-Brl, Cergy-Pontoise, France) completed with 10% foetal calf serum inactived by heating (Gibco-Brl, Cergy-Pontoise, France), 50000 units/l of penicillin and 50 mg/l streptomycin (Gibco-Brl, Cergy-Pontoise, France), and 2 mM of glutamine (Gibco-Brl, Cergy-Pontoise, France).
The cells were treated simultaneously with concentrations of two products individually or in combination on Day 1 and for 120 hours.
At the end of the of this period (D6), quantification of cell proliferation is evaluated by a colorimetric test based on the cleavage of the tetrazolium salt WST1 by mitochondrial dehydrogenases in living cells leading to the formation of formazan (Boehringer Mannheim, Meylan, France). These tests are carried out at least in duplicate with 4 determinations for each individual product and for each combination tested. This allows determination of the number of living cells at the end of each treatment.

Assay [2] relates to Mia-PaCa2 (human pancreas cancer cells). Description: Antiproliferative activity on Mia-Paca2 cells (WST1). The class given is cell-based. As to conditions: MIA PaCa-2, 96 hours treatment, read-out: IC50 on the cell proliferation of Mia-Paca2 lines. As for the experimental part:
ii) Characterization of the Antiproliferative Activity:
By way of example, the effect of a treatment on two human cell lines Mia-Paca2 and DU145 with the compounds of the examples described previously will be studied. The cell lines DU145 (human prostate cancer cells) and Mia-PaCa2 (human pancreas cancer cells) were acquired from the American Tissue Culture Collection (Rockville, Md., USA). The cells placed in 80 μl of Dulbecco's Modified Eagle's medium (Gibco-Brl, Cergy-Pontoise, France) completed with 10% foetal calf serum inactivated by heating (Gibco-Brl, Cergy-Pontoise, France), 50,000 units/l of penicillin and 50 mg/l of streptomycin (Gibco-Brl, Cergy-Pontoise, France), and 2 mM of glutamine (Gibco-Brl, Cergy-Pontoise, France) were seeded on a 96-well plate on day 0. The cells were treated on day 1 for 96 hours with increasing concentrations of each of the compounds to be tested up to 10 μM. At the end of this period, quantification of cell proliferation is evaluated by a colorimetric test based on the cleavage of the tetrazolium salt WST1 by the mitochondrial dehydrogenases in viable cells leading to the formation of formazan (Boehringer Mannheim, Meylan, France). These tests are carried out in duplicate with 8 determinations per concentration tested. For each compound to be tested, the values included in the linear part of the sigmoid were retained for a linear regression analysis and used to estimate the inhibitory concentration IC50. The products are solubilized in dimethylsulphoxide (DMSO) at 10^−2 M and finally used in culture with 0.1% DMSO.
(In general: Formazan colour is commonly taken as a measure of viable cells.)

Consider “4-(2-bromophenyl)-1-(2-(1-((4-cyano-3-methoxy)phenylmethyl)imidazo-5-yl)-1-oxoethyl)-1,2-dihydro-8-fluoroimidazo[1,2a][1,4]-benzodiazepine [Compound B7]”, for which, in assay [1] (Combination 7: Compound B7 (10^−5 M) individually), the “% of surviving cells” value was determined as 92%.

`CO[C@@]12[C@H](COC(N)=O)C3=C(C(=O)C(C)=C(N)C3=O)N1C[C@@H]1N[C@@H]12` [Compound B2, mitomycin C]: the “% of surviving cells” value turned out to be 49% in assay [1] (Combination 2: Compound B2 (10^−7 M) individually), 82% in assay [1] (Combination 25: Compound B2 (5 × 10^−8 M) individually), 88% in assay [1] (Combination 32: Compound B2 (5 × 10^−8 M) individually) and 88% in assay [1] (Combination 33: Compound B2 (5 × 10^−8 M) individually).

For `N.N.[Cl][Pt][Cl]` [Compound B4, cisplatin], the “% of surviving cells” value is reported as 33% in assay [1] (Combination 4: Compound B4 (10^−5 M) individually), 75% in assay [1] (Combination 28: Compound B4 (10^−5 M) individually) and 85% in assay [1] (Combination 35: Compound B4 (10^−5 M) individually).

As to `Cc1nc2c(s1)C(=O)C=C(NCCN1CCOCC1)C2=O` [Example 1, 2-methyl-5-{[2-(4-morpholinyl)ethyl]amino}-1,3-benzothiazole-4,7-dione], the IC50 in assay [2] was not above 10 µM.

For `Cc1nc2c(s1)C(=O)C=C(NCCN(C)C)C2=O` [Example 2, 5-{[2-(dimethylamino)ethyl]amino}-2-methyl-1,3-benzothiazole-4,7-dione hydrochloride], the IC50 in assay [2] was not above 10 µM.

For `Cc1nc2c(s1)C(=O)C=C(NCCCCCCN(C)C)C2=O` [Example 3, 5-{[6-(dimethylamino)hexyl]amino}-2-methyl-1,3-benzothiazole-4,7-dione], in assay [2], the IC50 is not above 10 µM.

With `Cc1nc2c(s1)C(=O)C=C(NCC(C)(C)CN(C)C)C2=O` [Example 4, 5-{[3-(dimethylamino)-2,2-dimethylpropyl]amino}-2-methyl-1,3-benzothiazole-4,7-dione], in assay [2], the IC50 is not above 10 µM.

Take `Cc1nc2c(s1)C(=O)C=C(NCCCN1CCN(C)CC1)C2=O` [Example 5, 2-methyl-5-{[3-(4-methyl-1-piperazinyl)propyl]amino}-1,3-benzothiazole-4,7-dione]: in assay [2], the IC50 is not above 10 µM.

Regarding `CCCCCC(CC)NC1=CC(=O)c2sc(C)nc2C1=O` (centres unmarked) [Example 6, 5-[(1-ethylhexyl)amino]-2-methyl-1,3-benzothiazole-4,7-dione], the IC50 in assay [2] was not above 10 µM.

Turning to `Cc1nc2c(s1)C(=O)C=C(NCC13CC4CC(CC(C4)C1)C3)C2=O` [Example 7, 5-[(1-adamantylmethyl)amino]-2-methyl-1,3-benzothiazole-4,7-dione], in assay [2], the IC50 is not above 10 µM.

Regarding `Cc1nc2c(s1)C(=O)C=C(NCc1cccs1)C2=O` [Example 8, 2-methyl-5-[(2-thienylmethyl)amino]-1,3-benzothiazole-4,7-dione], the IC50 in assay [2] is not above 10 µM.

As to `Cc1nc2c(s1)C(=O)C=C(NCc1cccc(Cl)c1)C2=O` [Example 9, 5-[(3-chlorobenzyl)amino]-2-methyl-1,3-benzothiazole-4,7-dione], in assay [2], the IC50 is not above 10 µM.

With `Cc1nc2c(s1)C(=O)C=C(N1CCN(Cc3ccccc3)CC1)C2=O` [Example 14, 5-(4-benzyl-1-piperazinyl)-2-methyl-1,3-benzothiazole-4,7-dione], in assay [2], the IC50 was not above 10 µM.

For `COCCNC1=CC(=O)c2sc(C)nc2C1=O` [Example 18, 5-[(2-methoxyethyl)amino]-2-methyl-1,3-benzothiazole-4,7-dione], the IC50 in assay [2] is not above 10 µM.

For the compound `Cc1nc2c(s1)C(=O)C=C(NCCN1CCCC1)C2=O` [Example 19, 2-methyl-5-[(2-pyrrolidin-1-ylethyl)amino]-1,3-benzothiazole-4,7-dione], the IC50 in assay [2] was not above 10 µM.

Turning to `Cc1nc2c(s1)C(=O)C=C(NCCN1CCCCC1)C2=O` [Example 20, 2-methyl-5-[(2-piperidin-1-ylethyl)amino]-1,3-benzothiazole-4,7-dione], the IC50 in assay [2] was not above 10 µM.

Take `Cc1nc2c(s1)C(=O)C=C(NCCN(C(C)C)C(C)C)C2=O` [Example 21, 5-{[2-(diisopropylamino)ethyl]amino}-2-methyl-1,3-benzothiazole-4,7-dione]: the IC50 in assay [2] was not above 10 µM.

In the case of `Cc1nc2c(s1)C(=O)C=C(NC1CCN(Cc3ccccc3)C1)C2=O` (centres unmarked) [Example 22, 5-[(1-benzylpyrrolidin-3-yl)amino]-2-methyl-1,3-benzothiazole-4,7-dione], in assay [2], the IC50 is not above 10 µM.

Turning to `Cc1nc2c(s1)C(=O)C=C(NCCCN(C)C)C2=O` [Example 23, 5-{[3-(dimethylamino)propyl]amino}-2-methyl-1,3-benzothiazole-4,7-dione], the IC50 in assay [2] was not above 10 µM.

`Cc1nc2c(s1)C(=O)C=C(NCCC1CCCN1C)C2=O` (centres unmarked) [Example 24, 2-methyl-5-{[2-(1-methylpyrrolidin-2-yl)ethyl]amino}-1,3-benzothiazole-4,7-dione]: the IC50 in assay [2] is not above 10 µM.

With `Cc1nc2c(s1)C(=O)C=C(NCCCN1CCCCC1C)C2=O` (centres unmarked) [Example 25, 2-methyl-5-{[3-(2-methylpiperidin-1-yl)propyl]amino)-1,3-benzothiazole-4,7-dione], in assay [2], the IC50 was not above 10 µM.

Take `Cc1nc2c(s1)C(=O)C=C(NCCCCN(C)C)C2=O` [Example 26, 5-{[4-(dimethylamino)butyl]amino}-2-methyl-1,3-benzothiazole-4,7-dione]: in assay [2], the IC50 was not above 10 µM.

`Cc1nc2c(s1)C(=O)C=C(NCCCCCN(C)C)C2=O` [Example 27, 5-{[5-(dimethylamino)pentyl]amino}-2-methyl-1,3-benzothiazole-4,7-dione]: the IC50 in assay [2] is not above 10 µM.

Turning to `Cc1nc2c(s1)C(=O)C=C(NC1CCc3ccccc31)C2=O` (centres unmarked) [Example 28, 5-(2,3-dihydro-1H-inden-1-ylamino)-2-methyl-1,3-benzothiazole-4,7-dione], in assay [2], the IC50 is not above 10 µM.

As to `Cc1nc2c(s1)C(=O)C=C(N(CCN(C)C)Cc1ccccc1)C2=O` [Example 29, 5-{benzyl[2-(dimethylamino)ethyl]amino}-2-methyl-1,3-benzothiazole-4,7-dione], the IC50 in assay [2] is not above 10 µM.

In the case of `Cc1nc2c(s1)C(=O)C=C(NCCCN(C)C(=O)OC(C)(C)C)C2=O` [Example 30, tert-butyl methyl{3-[(2-methyl-4,7-dioxo-4,7-dihydro-1,3-benzothiazol-5-yl)amino]propyl}carbamate], the IC50 in assay [2] is not above 10 µM.

For the compound `Cc1nc2c(s1)C(=O)C=C(NCCCNC(=O)OC(C)(C)C)C2=O` [Example 31, tert-butyl 3-[(2-methyl-4,7-dioxo-4,7-dihydro-1,3-benzothiazol-5-yl)amino]propylcarbamate], the IC50 in assay [2] was not above 10 µM.

As to `CNCCCNC1=CC(=O)c2sc(C)nc2C1=O` [Example 32, 2-methyl-5-{[3-(methylamino)propyl]amino}-1,3-benzothiazole-4,7-dione hydrochloride], in assay [2], the IC50 is not above 10 µM.

`Cc1nc2c(s1)C(=O)C(Cl)=C(NCCN(C)C)C2=O` [Example 34, 6-chloro-5-{[2-(dimethylamino)ethyl]amino}-2-methyl-1,3-benzothiazole-4,7-dione]: in assay [2], the IC50 is not above 10 µM.

Consider `CCCCSC1=C(NCCN(C)C)C(=O)c2nc(C)sc2C1=O` [Example 36, 6-(butylthio)-5-{[2-(dimethylamino)ethyl]amino}-2-methyl-1,3-benzothiazole-4,7-dione], for which, in assay [2], the IC50 was not above 10 µM.

As to `CN(C)CCNC1=CC(=O)c2sc(CN3CCOCC3)nc2C1=O` [Example 37, 5-{[2-(dimethylamino)ethyl]amino}-2-(morpholin-4-ylmethyl)-1,3-benzothiazole-4,7-dione], in assay [2], the IC50 was not above 10 µM.

For `CN(C)CCNC1=CC(=O)c2sc(CN3CCN(c4ccccc4)CC3)nc2C1=O` [Example 38, 5-{1[2-(dimethylamino)ethyl]amino}-2-[(4-phenylpiperazin-1-yl)methyl]-1,3-benzothiazole-4,7-dione], in assay [2], the IC50 is not above 10 µM.

Take `CN(C)CCNC1=CC(=O)c2sc(CN3CCCCC3)nc2C1=O` [Example 39, 5-{[2-(dimethylamino)ethyl]amino}-2-(piperidin-1-ylmethyl)-1,3-benzothiazole-4,7-dione]: in assay [2], the IC50 was not above 10 µM.
